Test results taken from patent US12110293B2, “Substituted triazolo quinoxaline derivatives” (GRÜNENTHAL GMBH, priority 2018, dated 2024).

Target: T1, glucocorticoid receptor (Homo sapiens, UniProt P04150)
T1 construct: expressed in transfected cells
T1 sequence (P04150 524-758 limits assumed): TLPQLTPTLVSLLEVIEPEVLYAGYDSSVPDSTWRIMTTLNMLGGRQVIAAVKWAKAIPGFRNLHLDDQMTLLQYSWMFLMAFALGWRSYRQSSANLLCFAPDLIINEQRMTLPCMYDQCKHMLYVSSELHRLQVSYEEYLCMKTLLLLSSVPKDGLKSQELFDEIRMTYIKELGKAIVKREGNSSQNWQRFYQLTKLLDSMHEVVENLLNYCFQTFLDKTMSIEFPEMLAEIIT
Experiment: Agonistic mode of action on the glucocorticoid receptor (CHO-Gal4/GR luciferase reporter cell line)
Type: cell-based
Conditions: range class observed in the agonistic assay or the antagonistic assay (CHO-Gal4/GR reporter cells); table does not say which mode applies per example
Procedure, shortened: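 Agonism measured as dose-dependent luciferase luminescence (FLIPR Tetra) from a GAL4-UAS reporter driven by GAL4 DBD fused to GR ligand-binding domain in stable CHO cells. Eight half-log doses, 10 μM to 0.003 μM final in 0.5% DMSO, quadruplicate, on cells seeded 24 h earlier at 5000/well; EC50 derived.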

Row | SMILES | IC50 or EC50 (agonist or antagonist mode not specified)
1 | CCc1nnc2n1-c1c(cc(F)c(-c3cc(F)cc4c3ccn4CCOC)c1C)NC2(C)C [Example 36, 1-ethyl-7-fluoro-8-(6-fluoro-1-(2-methoxyethyl)-1H-indol-4-yl)-4,4,9-trimethyl-4,5-dihydro-[1,2,4]triazolo[4,3-a]quinoxaline] | 100 to 1000 nM
2 | COCCn1ccc2c(-c3c(OC)cc4c(c3C)-n3c(C)nnc3C(C)(C)N4)cccc21 [Example 344, 7-Methoxy-8-[1-(2-methoxy-ethyl)-1H-indol-4-yl]-1,4,4,9-tetramethyl-5H-[1,2,4]triazolo[4,3-a] quinoxaline] | 1000 to 15000 nM
3 | COc1c(-c2cc(F)cc3c2ccn3CCO)c(F)cc2c1-n1c(C)nnc1C(C)(C)N2 [Example 380, 2-[6-Fluoro-4-(7-fluoro-9-methoxy-1,4,4-trimethyl-5H-[1,2,4]triazolo [4,3-a]quinoxalin-8-yl)-1H-indol-1-yl]-ethanol] | 1000 to 15000 nM
4 | Cc1nnc2n1-c1c(cc(F)c(-c3cc(F)cc4[nH]c(C#N)cc34)c1F)NC2(C)C [Example 6, 4-(7,9-difluoro-1,4,4-trimethyl-4,5-dihydro-[1,2,4]triazolo[4,3-a]quinoxalin-8-yl)-6-fluoro-1H-indole-2-carbonitrile] | 1000 to 15000 nM
5 | COCCn1ccc2c(-c3c(Cl)cc4c(c3C)-n3c(C)nnc3C(C)(C)N4)cccc21 [Example 338, 7-Chloro-8-[1-(2-methoxy-ethyl)-1H-indol-4-yl]-1,4,4,9-tetramethyl-5H-[1,2,4]triazolo[4,3-a]quinoxaline] | 100 to 1000 nM
6 | Cc1c(-c2ccc(F)c3[nH]ccc23)c(Cl)cc2c1-n1c(C)nnc1C(C)(C)N2 [Example 506, 7-Chloro-8-(7-fluoro-1H-indol-4-yl)-1,4,4,9-tetramethyl-5H-[1,2,4]triazolo[4,3-a]quinoxaline] | 100 to 1000 nM
7 | Cc1c(-c2cccc3c2cnn3S(C)(=O)=O)c(Cl)cc2c1-n1c(C)nnc1C(C)(C)N2 [Example 386, 7-Chloro-1,4,4,9-tetramethyl-8-(1-methylsulfonyl-1H-indazol-4-yl)-5H-[1,2,4]triazolo[4,3-a] quinoxaline] | 1000 to 15000 nM
8 | Cc1nnc2n1-c1c(cc(F)c(-c3cccc4[nH]c(C(F)(F)F)cc34)c1F)NC2(C)C [Example 225, 7,9-Difluoro-1,4,4-trimethyl-8-[2-(trifluoromethyl)-1H-indol-4-yl]-5H-[1,2,4]triazolo[4,3-a]quinoxaline] | < 100 nM
9 | Cc1nnc2n1-c1c(cc(F)c(-c3cc(C(F)(F)F)cc4[nH]ccc34)c1F)NC2(C)C [Example 207, 7,9-Difluoro-1,4,4-trimethyl-8-[6-(trifluoromethyl)-1H-indol-4-yl]-5H-[1,2,4]triazolo[4,3-a]quinoxaline] | 100 to 1000 nM
10 | COc1cc2c(c(C(F)(F)F)c1-c1cc(F)cc3c1cnn3S(C)(=O)=O)-n1c(C)nnc1C(C)(C)N2 [Example 376, 8-(6-Fluoro-1-methylsulfonyl-1H-indazol-4-yl)-7-methoxy-1,4,4-trimethyl-9-(trifluoromethyl)-5H-[1,2,4]triazolo[4,3-a]quinoxaline] | 1000 to 15000 nM
11 | COCC(=O)n1ccc2c(-c3c(F)cc4c(c3F)-n3c(C)nnc3C(C)(C)N4)cccc21 [Example 213, 1-[4-(7,9-Difluoro-1,4,4-trimethyl-5H-[1,2,4]triazolo[4,3-a]quinoxalin-8-yl)-1H-indol-1-yl]-2-methoxy-ethanone] | < 100 nM
12 | COc1c(-c2cccc3c2ccn3C(=O)OC(C)(C)C)c(F)cc2c1-n1c(C)nnc1C(C)(C)N2 [Example 260, 4-(7-Fluoro-9-methoxy-1,4,4-trimethyl-5H-[1,2,4]triazolo[4,3-a]quinoxalin-8-yl)-1H-indole-1-carboxylic acid tert-butyl ester] | 100 to 1000 nM
